Tests used:
rat BG2-2 [1] = target: T1, rat BG2-2 (Rattus norvegicus, UniProt Q9QYN8); experiment: N-α-methylhistamine binding experiment on membrane fraction of COS7 cells expressing rat BG2-2; parameters: Vectors expressing each BG2 receptor were prepared using pEF1x; expressed in transfected cells; host or cells: COS7 cells (membrane fraction)
Protocol: (§1) Vectors expressing each BG2 receptor were prepared using pEF1x (Biochemical and Biophysical Research Communications, 1998, 250:68-71). Each BG2 expression vector was introduced into COS7 cells by lipofection method. Genes were introduced using Lipofectamine PLUS reagent (GIBCO-BRL) according to the attached manual.
(§2) The cells were cultured at 37° C. for 24 hours in Dulbecco MEM medium (Asahi Techno Glass) to which fetal calf serum (Sigma) was added at a final concentration of 10%, in an incubator in which CO2 concentration was adjusted to 5%. Then, the cells were used for preparing a membrane fraction for the histamine binding experiment.
(§3) The cells into which each BG2 receptor-expressing vector was introduced were crushed in 50 mM Tris-HCl pH 7.4 solution according to the standard method, uncrushed cells were removed by centrifuging at 1,000 g for 10 min, and supernatant was centrifuged at 100,000 g for 10 min to obtain a membrane fraction. The membrane fraction was resuspended in the 50 mM Tris-HCl pH 7.4 solution and centrifuged twice at 100,000 g for 10 min to finally obtain the membrane fraction. The membrane fraction obtained in this manner was suspended in 50 mM Tris-HCl pH 7.4 solution and used for the binding experiment.
(§4) By using N-α-methylhistamine, a histamine analogue agonist, the binding experiment was conducted and the binding constants were determined (Table 2). […]

human BG2 [2] = target: T2, human BG2 (Homo sapiens, UniProt Q9Y5N1); experiment: N-α-methylhistamine binding experiment on membrane fraction of COS7 cells expressing human BG2; parameters: the G protein-coupled receptor protein encoded by the isolated human BG2 cDNA, the present inventors prepared cells expressing the protein; expressed in transfected cells
T2 sequence (Q9Y5N1 1-453 isoform Q9Y5N1-2): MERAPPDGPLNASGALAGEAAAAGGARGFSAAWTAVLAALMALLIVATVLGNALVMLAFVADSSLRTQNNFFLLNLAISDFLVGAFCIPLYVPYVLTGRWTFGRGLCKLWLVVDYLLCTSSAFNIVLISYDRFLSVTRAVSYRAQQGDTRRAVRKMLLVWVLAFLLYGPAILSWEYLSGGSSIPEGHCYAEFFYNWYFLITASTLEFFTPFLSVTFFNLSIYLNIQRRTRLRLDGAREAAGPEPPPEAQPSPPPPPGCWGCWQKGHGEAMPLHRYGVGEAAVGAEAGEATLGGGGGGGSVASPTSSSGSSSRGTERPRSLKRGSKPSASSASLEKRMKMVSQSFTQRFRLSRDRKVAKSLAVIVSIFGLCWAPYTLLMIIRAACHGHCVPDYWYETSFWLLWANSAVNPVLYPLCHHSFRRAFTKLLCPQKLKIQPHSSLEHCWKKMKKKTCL
Protocol: as §1, §2, §3, §4

rat BG2 [3] = target: T3, rat BG2 (Rattus norvegicus, UniProt Q9QYN8); experiment: N-α-methylhistamine binding experiment on membrane fraction of COS7 cells expressing rat BG2; parameters: succeeded in isolating a full-length cDNA (rat BG2 cDNA) encoding a rat G protein-coupled receptor; expressed in transfected cells; host or cells: COS7 cells (membrane fraction)
T3 sequence (Q9QYN8 1-413 isoform Q9QYN8-2): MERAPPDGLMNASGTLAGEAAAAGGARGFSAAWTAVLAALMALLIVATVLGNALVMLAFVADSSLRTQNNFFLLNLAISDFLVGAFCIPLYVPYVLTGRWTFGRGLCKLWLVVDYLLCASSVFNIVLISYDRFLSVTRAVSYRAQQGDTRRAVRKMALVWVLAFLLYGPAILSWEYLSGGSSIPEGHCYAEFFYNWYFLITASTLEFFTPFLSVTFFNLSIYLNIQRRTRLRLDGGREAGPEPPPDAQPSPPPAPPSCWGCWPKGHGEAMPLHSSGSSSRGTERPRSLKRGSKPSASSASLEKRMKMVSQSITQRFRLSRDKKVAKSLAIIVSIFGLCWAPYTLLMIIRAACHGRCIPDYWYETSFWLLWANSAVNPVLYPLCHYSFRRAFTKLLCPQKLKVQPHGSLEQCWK
Protocol: as §1, §2, §3, §4

rat BG2 [4] = target: T3, rat BG2; settings: 10 μM forskolin; various histamine concentrations; 15 min; rat BG2-expressing cells
Protocol: (§5) HEK293-CRE-BLA cells (Aurora) were cultured using the D-MEM/F-12 (1:1) mixed medium (GIBCO BRL) containing 10% fetal calf serum and 500 μg/ml G418 at 37° C. in the presence of 5% CO2. Effectene Transfection Reagent (QIAGEN) was used for gene introduction.
(§6) A day prior to the gene introduction, cells were spread on a 6-well plate (NUNC) at 3×10^5 cells/well and 0.4 μg each of the rat BG-2 and BG2-2 expression vectors was introduced into them using 10 μl/well Effectene Transfection Reagent according to the attached manual. The cells were cultured at 37° C. in the presence of 5% CO2 for 48 hours.
(§7) To isolate single cells into which the target gene was introduced, the cells were detached from a Petri dish by trypsin, and spread to a 96-well plate (NUNC) at 2000 to 250 cells/well. The cells were further cultured in selection medium containing hygromycin at 37° C. in the presence of 5% CO2 for 14 days. Wells containing cells consisting of a single colony were only selected and cells were passage-cultured to prepare a stable cell line. […] As a control, rat BG2-expressing cells were prepared in the same manner.

rat BG2-2 [5] = target: T1, rat BG2-2; settings: 10 μM forskolin; various histamine concentrations; 15 min; rat BG2-2-expressing cells
Protocol: as §5, §6, §7

[6] = system: control cells expressing nothing
Protocol: The intracellular cAMP concentration was measured by the method of Zlokarmik et al. (Science, 1998, 279:84). In the method of Zlokarmik et al., intracellular cAMP concentration was measured by introducing the gene in which β-lactamase gene was ligated downstream of the sequence that increased transcription activity of a gene downstream thereof dependently on the increase of intracellular cAMP concentration (CRE: cAMP responsible element), and by measuring fluorescence changes in florescent substrates to which an activity of β-lactamase transcribed and translated by the change of cAMP concentration in the cells was added.
Moreover, to measure the decrease of intracellular cAMP concentration mediated by the bound G protein in seven-transmembrane receptors, an activity of β-lactamase depending on the intracellular cAMP concentration was increased by adding forskolin and the decrease of cAMP in cells was measured with the decrease of β-lactamase activity when a ligand was reacted.
The cells in which the above reporter gene and human BG2 were expressed were washed with PBS(−) buffer (GIBCO-BRL) twice, Cell-dissociation buffer (GIBCO-BRL) was added thereto, and the cells were warmed at 37° C. in a CO2 incubator for 3 min and dissociated from a flask by gently tapping the incubation flask. […]

human BG2 [7] = target: T2, human BG2; experiment: Intracellular cAMP measurement by CRE-β-lactamase reporter (method of Zlokarmik et al.) in human BG2-expressing HEK 293 cells with forskolin; assay type: cell-based; parameters: the G protein-coupled receptor protein encoded by the isolated human BG2 cDNA, the present inventors prepared cells expressing the protein; expressed in transfected cells; host or cells: HEK 293 cells carrying a CRE-beta-lactamase reporter (Aurora), hygromycin-selected; settings: drug 1 μg/ml, forskolin 0.5 μM
Protocol: This human BG2 expression vector was introduced by lipofection method into HEK 293 cells in which β-lactamase gene was ligated downstream of CRE sequence (purchased from Aurora). For introducing the gene, Lipofectamine PLUS reagent (GIBCO-BRL) was used and the experimental manipulation was performed according to the attached manual.
Human BG2-expressing cells were selected by placing cells in a medium containing hygromycin, and cells which grew in the medium were used for a functional assay as human BG2-expressing cells.

T1 sequence (Q9QYN8 whole entry): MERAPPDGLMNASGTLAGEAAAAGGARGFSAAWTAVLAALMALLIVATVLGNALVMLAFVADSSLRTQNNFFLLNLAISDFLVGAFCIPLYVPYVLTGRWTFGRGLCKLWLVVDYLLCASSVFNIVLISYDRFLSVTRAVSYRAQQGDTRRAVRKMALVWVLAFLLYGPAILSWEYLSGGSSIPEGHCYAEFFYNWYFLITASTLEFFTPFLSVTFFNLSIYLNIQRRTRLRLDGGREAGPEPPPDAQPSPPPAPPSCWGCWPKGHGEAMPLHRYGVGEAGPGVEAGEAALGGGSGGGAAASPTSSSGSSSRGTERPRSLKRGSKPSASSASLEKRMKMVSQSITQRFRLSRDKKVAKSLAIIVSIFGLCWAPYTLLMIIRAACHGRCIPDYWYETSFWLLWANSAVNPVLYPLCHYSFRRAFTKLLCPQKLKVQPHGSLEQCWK

CNCCc1c[nH]cn1.Cl.Cl [N-α-methylhistamine, Histamine, N-alpha-methyl-dihydrochloride]
Kd (rat BG2-2 [1]; Rat BG2-2, COS7 membrane fraction, 30° C., 40 min, read-out: Binding Constant): 0.582 ± 0.0261 nM | specific binding (in words) (rat BG2-2 [1]; rat BG2-2, nonspecific with 2 μM N-α-methylhistamine): specifically bound | Kd (human BG2 [2]; Human BG2, COS7 membrane fraction, 30° C., 40 min, read-out: Binding Constant): 0.548 ± 0.0751 nM | specific binding (in words) (human BG2 [2]; human BG2, nonspecific with 2 μM N-α-methylhistamine): specifically bound | Kd (rat BG2 [3]; Rat BG2, COS7 membrane fraction, 30° C., 40 min, read-out: Binding Constant): 0.503 ± 0.0198 nM | specific binding (in words) (rat BG2 [3]; rat BG2, nonspecific with 2 μM N-α-methylhistamine): specifically bound

Cl.Cl.NCCc1c[nH]cn1 [histamine, Histamine dihydrochloride]
decrease of intracellular cAMP concentration (in words) (rat BG2 [4]): decrease of intracellular cAMP concentration, dependent on histamine concentration, was confirmed | decrease of intracellular cAMP concentration (in words) (rat BG2-2 [5]): decrease of intracellular cAMP concentration, dependent on histamine concentration, was confirmed | reduction of intracellular cAMP concentration (in words) [6]: not observed | reduction of intracellular cAMP concentration (in words) (human BG2 [7]): intracellular cAMP concentration was decreased | ratio of EM460/EM530 relative to the control (human BG2 [7]; control = 100, absence of forskolin = 0): 35%

C[N+](C)(C)CCOC(N)=O [carbachol]
reduction of intracellular cAMP concentration (in words) (human BG2 [7]): did not reduce intracellular cAMP concentration

NCCc1ccc(O)c(O)c1 [dopamine]
reduction of intracellular cAMP concentration (in words) (human BG2 [7]): did not reduce intracellular cAMP concentration

NCCc1c[nH]c2ccc(O)cc12 [serotonine]
reduction of intracellular cAMP concentration (in words) (human BG2 [7]): did not reduce intracellular cAMP concentration
